What all share (format): cell-based
Assay [1] deals with T1, adenosine A2a receptor (Homo sapiens, UniProt P29274).
T1 construct: expressed in transfected cells; host or cells: CHO (Chinese Hamster Ovary)
Description: Indirect determination of adenosine agonism by way of gene expression (luciferase reporter), A2a cells. As to conditions: CHO cells stably transfected with A2a receptor cDNA; 50% of maximum stimulation. The text has this:
(§1) B-1. Indirect Determination of the Adenosine Agonism by Way of Gene Expression
(§2) Cells of the CHO (Chinese Hamster Ovary) permanent line are transfected stably with the cDNA for the adenosine receptor subtypes A1, A2a and A2b. The adenosine A1 receptors are coupled to the adenylate cyclase by way of Gi proteins, while the adenosine A2a and A2b receptors are coupled by way of Gs proteins. In correspondence with this, the formation of cAMP in the cell is inhibited or stimulated, respectively. After that, expression of the luciferase is modulated by way of a cAMP-dependent promoter. The luciferase test is optimized, with the aim of high sensitivity and reproducibility, low variance and good suitability for implementation on a robot system, by varying several test parameters, such as cell density, duration of the growth phase and the test incubation, forskolin concentration and medium composition. The following test protocol is used for pharmacologically characterizing cells and for the robot-assisted substance screening:
(§3) The stock cultures are grown, at 37° C. and under 5% CO2, in DMEM/F12 medium containing 10% FCS (fetal calf serum) and in each case split 1:10 after 2-3 days. The test cultures are seeded in 384-well plates with 2000 cells per well and grown at 37° C. for approx. 48 hours. The medium is then replaced with a physiological sodium chloride solution (130 mM sodium chloride, 5 mM potassium chloride, 2 mM calcium chloride, 20 mM HEPES, 1 mM magnesium chloride hexahydrate, 5 mM sodium bicarbonate, pH 7.4). The substances to be tested, which are dissolved in DMSO, are pipetted into the test cultures (maximum final concentration of DMSO in the test mixture: 0.5%) in a dilution series of from 5×10^−11M to 3×10^−6M (final concentration). 10 minutes later, forskolin is added to the A1 cells and all the cultures are subsequently incubated at 37° C. for four hours. After that, 35 μl of a solution which is composed of 50% lysis reagent (30 mM disodium hydrogenphosphate, 10% glycerol, 3% TritonX100, 25 mM TrisHCl, 2 mM dithiotreitol (DTT), pH 7.8) and 50% luciferase substrate solution (2.5 mM ATP, 0.5 mM luciferin, 0.1 mM coenzyme A, 10 mM tricine, 1.35 mM magnesium sulfate, 15 mM DTT, pH 7.8) are added to the test cultures, which are shaken for approx. 1 minute and the luciferase activity is measured using a camera system. The EC50 values are determined, i.e., the concentrations at which 50% of the luciferase answer is inhibited in the case of the A1 cell, and, respectively, 50% of the maximum stimulation with the corresponding substance is achieved in the case of the A2b and A2a cells. […] Pharmacol., 357 (1998), 1-9).
(§4) Table 1 below lists the EC50 values of representative working examples for the receptor stimulation on adenosine A1, A2a and A2b receptor subtypes: […]

In assay [2] the target is T2, adenosine A1 receptor (Homo sapiens, UniProt P30542).
T2 construct: expressed in transfected cells; host or cells: CHO (Chinese Hamster Ovary)
T2 sequence (P30542 1-326): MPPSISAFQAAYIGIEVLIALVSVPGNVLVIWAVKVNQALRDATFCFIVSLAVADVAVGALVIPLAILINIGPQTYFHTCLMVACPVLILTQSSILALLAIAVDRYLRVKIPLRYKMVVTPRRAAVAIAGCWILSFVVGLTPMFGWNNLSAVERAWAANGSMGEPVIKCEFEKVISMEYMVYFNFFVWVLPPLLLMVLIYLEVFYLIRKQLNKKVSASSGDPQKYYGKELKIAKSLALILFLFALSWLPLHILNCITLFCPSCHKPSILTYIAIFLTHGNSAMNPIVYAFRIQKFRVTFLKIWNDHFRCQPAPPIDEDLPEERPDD
Description: Indirect determination of adenosine agonism by way of gene expression (luciferase reporter), A1 cells. As to conditions: CHO cells stably transfected with A1 receptor cDNA; 1 μM forskolin; 50% inhibition of luciferase answer.
Source text: as §1, §2, §3, §4
In general terms: Reporter assays use an easily measured gene product as a stand-in for the process of interest.

The target in assay [3] is T3, adenosine A2b receptor (Homo sapiens, UniProt P29275).
T3 construct: expressed in transfected cells; host or cells: CHO (Chinese Hamster Ovary)
T3 sequence (P29275 1-332): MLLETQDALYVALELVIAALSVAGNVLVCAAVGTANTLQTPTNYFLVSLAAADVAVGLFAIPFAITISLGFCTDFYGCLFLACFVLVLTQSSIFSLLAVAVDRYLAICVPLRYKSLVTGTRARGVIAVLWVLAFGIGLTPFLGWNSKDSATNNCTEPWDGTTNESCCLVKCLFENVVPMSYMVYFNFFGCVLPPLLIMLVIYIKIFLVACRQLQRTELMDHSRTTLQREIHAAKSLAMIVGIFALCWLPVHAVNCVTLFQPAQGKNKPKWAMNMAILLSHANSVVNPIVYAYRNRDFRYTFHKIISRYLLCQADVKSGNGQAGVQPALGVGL
The assay can be described thus: Indirect determination of adenosine agonism by way of gene expression (luciferase reporter), A2b cells. The settings on record: CHO cells stably transfected with A2b receptor cDNA; 50% of maximum stimulation.
Source text: as §1, §2, §3, §4

Structures are written as SMILES.

Broadly, the EC50 is the midpoint of the concentration-response curve. A lower EC50 goes with an effect from little substance.

T1 sequence (P29274 whole entry): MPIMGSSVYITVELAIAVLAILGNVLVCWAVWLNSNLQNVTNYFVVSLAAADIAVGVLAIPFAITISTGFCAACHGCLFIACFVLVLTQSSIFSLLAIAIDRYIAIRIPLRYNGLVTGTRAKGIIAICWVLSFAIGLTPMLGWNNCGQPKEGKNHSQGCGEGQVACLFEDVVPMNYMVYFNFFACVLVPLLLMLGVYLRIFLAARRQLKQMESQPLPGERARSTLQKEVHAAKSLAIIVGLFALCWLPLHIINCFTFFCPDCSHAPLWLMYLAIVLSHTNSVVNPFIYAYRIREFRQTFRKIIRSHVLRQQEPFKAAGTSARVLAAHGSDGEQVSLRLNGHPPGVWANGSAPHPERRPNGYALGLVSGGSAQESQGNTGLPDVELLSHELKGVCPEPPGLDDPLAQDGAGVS

Turning to `N#Cc1c(SCc2csc(-c3ccc(Cl)cc3)n2)nc2[nH]c(=O)[nH]c(=O)c2c1-c1ccc(OCCO)cc1` [Example 12, 7-({[2-(4-Chlorophenyl)-1,3-thiazol-4-yl]methyl}sulfanyl)-5-[4-(2-hydroxyethoxy)phenyl]-2,4-dioxo-1,2,3,4-tetrahydropyrido[2,3-d]pyrimidine-6-carbonitrile], the results for the EC50 in assay [1], in assay [2] and in assay [3] were 2000 nM, 2 nM and 880 nM, respectively.

Take `Cc1nc2nc(SCc3csc(-c4ccc(Cl)cc4)n3)c(C#N)c(-c3ccc(OCCO)cc3)c2c(=O)[nH]1` [Example 10, 7-({[2-(4-Chlorophenyl)-1,3-thiazol-4-yl]methyl}thio)-5-[4-(2-hydroxyethoxy)phenyl]-2-methyl-4-oxo-3,4-dihydropyrido[2,3-d]pyrimidine-6-carbonitrile]: the half-maximal effective concentration (EC50) in assay [1] was 1370 nM; in assay [2], 0.4 nM; in assay [3] it was 213 nM.

Take `N#Cc1c(SCc2csc(-c3ccc(Cl)cc3)n2)nc2c(c1-c1ccc(OCCO)cc1)C(=O)CCC2` [Example 2, 2-({[2-(4-Chlorophenyl)-1,3-thiazol-4-yl]methyl}thio)-4-[4-(2-hydroxyethoxy)phenyl]-5-oxo-5,6,7,8-tetrahydroquinoline-3-carbonitrile]: the EC50 in assay [1] was greater than 3000 nM; in assay [2] it was 7.9 nM; in assay [3], 207 nM.

As for `N#Cc1c(SCc2csc(-c3ccc(Cl)cc3)n2)nc2c(c1-c1ccc(OC[C@@H](O)CO)cc1)C(=O)CCC2` [Example 3, 2-({[2-(4-Chlorophenyl)-1,3-thiazol-4-yl]methyl}thio)-4-(4-{[(2S)-2,3-dihydroxypropyl]oxy}-phenyl)-5-oxo-5,6,7,8-tetrahydroquinoline-3-carbonitrile], the figures for the EC50 in assay [1], in assay [2] and in assay [3] were greater than 3000 nM, 2.6 nM and 66 nM, respectively.

Turning to `COC(=O)c1ccc(-c2nc(CSc3nc4c(c(-c5ccccc5)c3C#N)CCC4)cs2)cc1` [Example 13, Methyl 4-(4-{[(3-cyano-4-phenyl-6,7-dihydro-5H-cyclopenta[b]pyridin-2-yl)sulfanyl]methyl}-1,3-thiazol-2-yl)benzoate], the EC50 in assay [2] came out at 21 nM; in assay [3] it was 1250 nM.

For the compound `Cc1nc(N)c2c(-c3ccc(OCCO)cc3)c(C#N)c(SCc3csc(-c4ccc(Cl)cc4)n3)nc2n1` [Example 9, 4-Amino-7-({[2-(4-chlorophenyl)-1,3-thiazol-4-yl]methyl}sulfanyl)-5-[4-(2-hydroxyethoxy)phenyl]-2-methylpyrido[2,3-d]pyrimidine-6-carbonitrile], the EC50 is 68 nM in assay [1], less than 0.04 nM in assay [2] and 38 nM in assay [3].

(Values after patent US8618119B2, “Fused cyanopyridines and the use thereof” (Bayer Intellectual Property GmbH, priority 2007, dated 2013).)
